The structures appear in SMILES notation. In brackets after ≈: the same amount, converted by molar mass.

For assay [1], the system named is superoxide radicals (O2^-) released from the peritoneal macrophage cells of guinea pig. As to the kind of experiment: Inhibitory effect against superoxide radicals (O2^-) released from the peritoneal macrophage cells of guinea pig by stimulation (FMLP). The format is cell-based. The settings on record: Cavia porcellus, Peritoneal macrophage cell; guinea pig peritoneal macrophages 2×10^6 cells/ml; FMLP 10^-7 M; cytochrome C reduction, OD550. The method, then:
Inhibitory effect against superoxide radicals (O2^-) released from the peritoneal macrophage cells of guinea pig by stimulation:
Mineral oil (15 ml)was intraperitoneally administered to a guinea pig, then 96 hours after the administration, the peritoneal macrophage cells were sampled.
Superoxide radicals (O2^-) were determined by means of reduction of cytochrome C method according to the procedure described in an article written by T. Matsumoto, K. Takeshige and S. Minakami: Biochemical and Biophysical Research Communications, Vol. 88, No. 3, pp. 974-979, (1979).
Into 1 ml of 80 μM-cytochrome C solution, the peritoneal macrophage cells were added to make the final concentration of 2×10^6 cells/ml, then each one of the test compounds of the present invention was added thereto to make the test group sample. On the other hand, water was added in place of the test compound of the present invention to make the control group sample. Each of the test group samples and the control group samples were subjected to pre-incubation at 37° C. for 1 minute.
As to the stimulating agent for releasing superoxide radicals (O2^-), FMLP (formylmethionyl leucyl phenylalanine)was added to each one of the test sample solutions and the control group samples to make the final concentration of FMLP to 10^-7 M, then the sample solutions were subjected to additional reaction by incubation for 1 minute.
Difference between the optical absorbances measured at 550 nm (OD550) of both test group samples and control group samples were determined, the 50% inhibitory concentration (IC50) was obtained by calculating as the ratio of OD550 of the test group sample to that of the control group sample.

Assay [2] concerns releasing of lysozomal enzyme from the neutrocytes of rat. As to the kind of experiment: Inhibitory effect against the releasing of lysozomal enzyme from the neutrocytes of rat. Type of assay: cell-based. Conditions: rat neutrocytes 5×10^5 cells/ml; FMLP 10^-6 M + cytocharasin B 5 μg/ml; OD540. The method, then: Inhibitory effect against the releasing of lysozomal enzyme from the neutrocytes of rat
The neutrocytes of rat were samples from the abdominal cavity of rat 16 hours after the administration of 10 ml of 1% casein solution (physiological saline solution).
Reaction of the releasing of lysozomal enzyme from the neutrocytes of rat was determined by means of the method as described in an article written by T. Matsumoto, K. Takeshige and S. Minakami: Biochemical and Biophysical Research Communications, Vol. 88, No. 3, pp 974-979, (1979).
The neutrocytes being sampled were added to Hank's solution so as to make the concentration thereof as 5×10^5 cells/ml, the test compound of piperazine derivative of the present invention was added thereto to make the test group sample. On the other hand, water was added in place of the piperazine derivative of the present invention to make the control group sample. Each of the test group samples and the control group samples were subjected to pre-incubation at 37° C. for 1 minute.
As to the stimulating agents, 10^-6 M of FMLP (formylmethionyl leucyl phenylalanine) and 5 μg/ml of cytocharasin B solution were added to the test solutions. Thus obtained mixture of the solution was reacted by incubating for 15 minutes. After the incubation, the mixture of the solution was subjected to centrifugation at 2,000 rpm for 10 minutes. The supernatant (0.2 ml) was admixed with 0.5 ml of 0.1 M-acetic acid buffer solution (pH 4.5) in which 0.2 mM of phenolphthalein glucuronic acid was dissolved. Then the resulting mixture of the solution was reacted at 37° C. for 5 hours by incubation. After the reaction, 1N-NaOH solution was added to the reaction mixture so as to make the pH value thereof to pH 8 to 9, and the optical absorbance of both test group samples and control group samples were determined at 540 nm (OD540).
The 50% inhibitory concentration (IC50) values were obtained by calculation as the ratio of OD540 of the test group sample to that of the control group sample.

For assay [3], the system named is releasing of hydrogen peroxide (H2 O2) from the neutrocyte of abdominal cavity of rat. As to the kind of experiment: Inhibitory effect against the releasing of hydrogen peroxide (H2O2) from the neutrocyte of abdominal cavity of rat. The format is cell-based, SD-strain rat. The settings on record: rat neutrocytes 10^6 cells/ml; FMLP 2×10^-6 M; 37° C., 1 hour; OD610. The method, then: Inhibitory effect against the releasing of hydrogen peroxide (H2 O2) from the neutrocyte of abdominal cavity of rat
1%-Casein solution was administered to the abdominal cavity of a SD-strain rat, then 16 hours after the administration, the neutrocytes were obtained by washing the abdominal cavity. Thus obtained neutrocytes were washed with Hank's solution.
In to a reaction mixture consisting of the following ingredients:
______________________________________
HRP (Horse Radish peroxide)
HEPES [N-(2-Hydroxyethyl)pipera-
zine N'-2-ethanesulfonic acid]
Rat neutrocytes 10^6 cells/ml
the test compound was added, then the whole mixture was incubated at 37° C. for 1 hour, and the mixture was subjected to a centrifugal separation at 2,000 rpm for minutes. After the centrifugal separation, 1 ml of the supernatant was sampled and 10 μl of 1N-NaOH aqueous solution was added thereto. Then, the optical absorbance at 610 nm (OD610) of the supernatant was determined by means of using a spectro-photometer.
The IC50 (50% inhibitory concentration) of the test compound was obtained by calculating as the ratio of OD610 of the test group sample to that of the control group sample.

As for `CC(C)C[C@H]1C(=O)N[C@](Cc2ccccc2)(C(=O)Nc2nc3ccccc3s2)C(=O)N1O` (racemic) [Example 27, (3RS,6SR)-3-(benzothiazol-2-yl)carbamoyl-3-benzyl-1-hydroxy-6-isobutylpiperazine-2,5-dione], the IC50 (as a rule, the concentration at which inhibition is half-maximal) came out at 0.25 µg/mL (≈ 0.552 µM) in assay [1] and 3 µg/mL in assay [2].

`COc1cccc(CNC(=O)[C@@]2(C)NC(=O)[C@H](CC(C)C)N(O)C2=O)c1` (racemic) [Example 29, (3RS,6SR)-1-hydroxy-6-isobutyl-3-[N-(3-methoxybenzyl)]carbamoyl-3-methylpiperazine-2,5-dione]: the IC50 in assay [3] was 5 µg/mL (≈ 13.8 µM); in assay [1] it was 3 µg/mL (≈ 8.26 µM); in assay [2] it was 2 µg/mL.

For `COc1cc(C[C@@H]2NC(=O)[C@H](CC(C)C)N(O)C2=O)cc(OC)c1OC` (relative stereo) [Example 15], the IC50 in assay [3] is under 3 µg/mL.

On to `COc1cc(C[C@@H]2NC(=O)[C@@H](CC(C)C)N(O)C2=O)cc(OC)c1OC` (relative stereo) [Example 16], for which the IC50 in assay [3] was under 3 µg/mL; in assay [1], 30 µg/mL (≈ 81.9 µM). Take `COc1cc(C[C@@H]2NC(=O)[C@H](CC(C)C)N(O)C2=O)cc(OC)c1O` (relative stereo) [Example 17]: the IC50 in assay [3] was under 3 µg/mL. Molecule `COc1ccc(C[C@@H]2NC(=O)[C@H](CC(C)C)N(O)C2=O)c(OC)c1` (relative stereo) [Example 18] gave a half-maximal inhibitory concentration (IC50) in assay [3] of 5 µg/mL (≈ 14.9 µM).

Take `COc1ccc(C[C@@H]2NC(=O)[C@@H](CC(C)C)N(O)C2=O)c(OC)c1` (relative stereo) [Example 19]: the IC50 stood at 5 µg/mL (≈ 14.9 µM) in assay [3] and 30 µg/mL (≈ 89.2 µM) in assay [1]. With `COc1cccc(CNC(=O)[C@]2(Cc3ccccc3)NC(=O)[C@@H](CC(C)C)N(O)C2=O)c1` (relative stereo) [Example 28], the results for the IC50 in assay [1] and in assay [2] were 3 µg/mL (≈ 6.83 µM) and 3 µg/mL, respectively. `CCOC(=O)[C@H]1NC(=O)[C@@H](Cc2c[nH]c3ccccc23)N(O)C1=O` (relative stereo) [Example 55] showed a 50% inhibitory concentration (IC50) in assay [3] of 3 µg/mL (≈ 9.05 µM).

For the molecule `CC(C)C[C@H]1C(=O)N[C@@H](Cc2ccccc2)C(=O)N1O` [Example 9, (3S, 6s)-3-benzyl-1-hydroxy-6-isobutylpiperazine-2,5-dione], in assay [3], the 50% inhibitory concentration (IC50) is under 6 µg/mL. For `CC(C)C[C@@H]1C(=O)N[C@@H](Cc2ccccc2)C(=O)N1O` [Example 10, (3S,6R)-3-Benzyl-1-hydroxy-6-isobutylpiperazine-2,5-dione], the half-maximal inhibitory concentration (IC50) in assay [1] was found to be 18 µg/mL (≈ 65.1 µM). For the molecule `CC(C)C[C@@H]1C(=O)N[C@@H](Cc2ccc(O)cc2)C(=O)N1O` [Example 11], the midpoint of inhibition in assay [3], the IC50, lay at 6 µg/mL (≈ 20.5 µM).

As for `CC(C)C[C@H]1C(=O)N[C@@H](Cc2cc(Cl)c(O)c(Cl)c2)C(=O)N1O` [Example 20], the IC50 in assay [1] amounted to 30 µg/mL (≈ 83.1 µM); in assay [2], 30 µg/mL. In assay [3], `CC(C)C[C@@H]1C(=O)N[C@@H](Cc2cc(Cl)c(O)c(Cl)c2)C(=O)N1O` [Example 21] showed an IC50 of 10 µg/mL (≈ 27.7 µM). Turning to `CC(C)C[C@@H]1C(=O)N[C@@H](Cc2cn(Cc3ccccc3)cn2)C(=O)N1O` [Example 26], the 50% inhibitory concentration (IC50) is 3 µg/mL (≈ 8.42 µM) in assay [3] and 6 µg/mL (≈ 16.8 µM) in assay [1].

Take `CC(C)C[C@@H]1NC(=O)[C@H](Cc2c[nH]c3ccccc23)N(O)C1=O` [Example 47, (3S,6S)-1-Hydroxy-6-(3-indolylmethyl)-3-isobutylpiperazine-2,5-dione]: the IC50 in assay [1] is 10 µg/mL (≈ 31.7 µM).

In assay [3], `CC(C)C[C@@H]1NC(=O)[C@@H](Cc2c[nH]c3ccccc23)N(O)C1=O` [Example 48, (3S, 6R)-1-Hydroxy-6-(3-indolylmethyl)-3-isobutylpiperazine-2,5-dione] returned an IC50 of under 3 µg/mL.

On to `O=C1N[C@@H](Cc2ccccc2)C(=O)N(O)[C@H]1Cc1c[nH]c2ccccc12` [Example 49], for which the figures for the IC50 in assay [3] and in assay [1] were under 3 µg/mL and 10 µg/mL (≈ 28.6 µM), respectively. In the case of `O=C1N[C@@H](Cc2ccccc2)C(=O)N(O)[C@@H]1Cc1c[nH]c2ccccc12` [Example 50], the half-inhibitory concentration (IC50) in assay [3] was under 3 µg/mL. Consider `CSCC[C@@H]1NC(=O)[C@H](Cc2c[nH]c3ccccc23)N(O)C1=O` [Example 51], for which the IC50 in assay [3] and in assay [1] was 3 µg/mL (≈ 9 µM) throughout. With `CSCC[C@@H]1NC(=O)[C@@H](Cc2c[nH]c3ccccc23)N(O)C1=O` [Example 52], the IC50 in assay [1] was 6 µg/mL (≈ 18 µM). Turning to `O=C1N[C@@H](COCc2ccccc2)C(=O)N(O)[C@H]1Cc1c[nH]c2ccccc12` [Example 53], the IC50 in assay [1] turned out to be 30 µg/mL (≈ 79.1 µM). In assay [3], `O=C1N[C@@H](COCc2ccccc2)C(=O)N(O)[C@@H]1Cc1c[nH]c2ccccc12` [Example 54] registered a half-inhibitory concentration (IC50) of 3 µg/mL (≈ 7.91 µM). Turning to `O=C1N[C@@H](Cc2ccc(O)cc2)C(=O)N(O)[C@H]1Cc1c[nH]c2ccccc12` [Example 60], the IC50 worked out at 6 µg/mL (≈ 16.4 µM) in assay [3] and 10 µg/mL (≈ 27.4 µM) in assay [1]. `O=C1[C@@H]2CCCN2C(=O)[C@H](Cc2c[nH]c3ccccc23)N1O` [Example 64] came in with an IC50 in assay [3] of under 3 µg/mL.

These data come from patent US5607934A, “Piperazine derivatives and salts thereof” (Otsuka Pharmaceutical Co., Ltd., priority 1993, dated 1997).
